According to patent US20230226079A1, “METHODS AND COMPOSITIONS FOR TREATMENT OF SOLID TUMORS” (Saint Louis University, priority 2022, published 2023):

Columns and labels:
insulin secretion = conditions: in vitro; cited from earlier work
[1] = system: normal oral keratinocytes (NOK); assay: Cytotoxicity assay in normal oral keratinocytes; format: cell-based, human; conditions: 48 h
From the text: Normal oral keratinocytes (NOK) (kindly gifted by Dr. Karl Mugner, Tuffs University, Boston, MA, USA) were maintained in Keratinocyte SFM medium supplemented with EGF and bovine pituitary extract (GIBCO, Life Technologies, Berkeley, MO, USA) and 1% penicillin/ streptomycin. HNC cell line Ca127 was purchased from the ATCC. JHU029 (JHU-29) and JHU022 (JHU-22) cell lines were procured from the Johns Hopkins University (Baltimore, MD, USA). The Ca127 and JHU022 cells were maintained in Dulbecco's Modified Eagle Medium (DMEM), and JHU029 cells were in RPMI1640 (Sigma, St. Louis, Mo., USA) media supplemented with 10% FBS and 1% penicillin/ streptomycin (Sigma-Aldrich, St. Louis, Mo., USA) in a humidified CO2 incubator. The cell lines are routinely tested in the Inventors' laboratory to rule out mycoplasma contamination using a commercial Mycoplasma Detection kit (MycoAlert™, Lonza, Morrisville, N.C., USA). Ca127 cells are tongue origin and JHU022 and JHU029 cells are from larynx origin.
Ca127, JHU029, JHU022 and NOK were seeded in 96 well-plate (5000 cells/well) and cells were treated with different concentration of M-I for 48 h. There were untreated control and DMSO treated vehicle control group for comparison. Cytotoxicity assay was performed using Cell Counting Kit-8 (Dojindo Molecular Technology, Rockville, Md., USA) according to manufacturer instruction.

[2] = system: c-Myc, survivin and cyclin D1; assay: Western blot for STAT3 downstream molecules in HNC cells; format: cell-based; conditions: Ca127 and JHU029 cells
Procedure: The powder was dissolved in DMSO and added to the cells at different concentrations. Based on cytotoxicity data, Ca127 and JHU029 cells were treated with 10 ug/mL and JHU022 cells were treated with 20 ug/mL dose of M-I and incubated for 48 hr for further experiments. All the experiments were done at least in triplicate.
HRP conjugated anti-mouse or anti-rabbit secondary antibodies were purchased from Bio-Rad (Hercules, Calif., USA). The blot was reprobed with HRP conjugated -actin antibody (1:5000; SBT) to compare protein load in each lane. Densitometry analysis was done using Image J software (NIH, Bethesda, Md., USA).

Compound: CC(C)=CC(O)CC(C)[C@H]1CC[C@@]2(C)[C@@H]3[C@@H](O)C=C4[C@@H](CC[C@H](O)C4(C)C)[C@]3(C=O)CC[C@]12C (stereo partly drawn) [M-I, (3S, 7S, 8S, 9R, 10R, 13R, 14S, 17R) 3,7-dihydroxy-17-(4-hydroxy-6-methylhept-5-en-2-yl)-4,4,13,14-tetramethyl-2,3,7,8,10,11, 12,15, 16,17-decahydro-1H-cyclopenta[a]phenanthrene-9-carbaldehyde]
- insulin secretion (insulin secretion): stimulate insulin secretion
- effect on human normal oral keratinocytes (NOK) [1]: minimum effect
- STAT3 downstream molecules c-Myc, survivin and cyclin D1 [2]: significant inhibition
